Data from PubChem BioAssay (NCI).
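Dose response: 5 concentrations. Exposure: 48 h. Format: 96-well plates. Endpoint: linear interpolation; highest concentration if not reached. GI50 = concentration required for 50% inhibition of growth. The concentration for full growth arrest is given as TGI.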

What follows are molecules tested on MDA-MB-468 breast (assay: NCI tumour cell line growth inhibition, 48 h).

Going from `OCc1ncc(-c2ccccc2)s1` to `O=C(c1ccccc1)c1ccc(O)c2ncccc12`, the GI50 falls from > 100 µM to 2.41 µM.

First: O=C(Nc1nc(-c2ccccc2)cs1)c1cc(O)c(O)c(O)c1
Second: CCOc1ccc(NC(=O)c2cc3ccccc3cc2O)cc1
The GI50 of the first is 26-fold lower: 2.46 µM for the first, 64.6 µM for the second.

Going from `Clc1ccc(-c2nc(C(Cl)Cl)nc3cc(-c4ccccc4)nn23)cc1` to `O=C1c2ccccc2C(=O)c2sc(Nc3ccc(Cl)cc3)nc21`, the GI50 rises from 0.772 µM to 1.98 µM (2.6-fold).

Compared with `O=C(Nc1cc(C(F)(F)F)cc(C(F)(F)F)c1)Nc1ccc(OCc2nnc(-c3ccc(Cl)cc3)o2)c(F)c1`, `O=C(NCCNC(=O)c1ccc(F)cc1)Nc1ccc(-n2cc(-c3ccncc3)c(-c3ccc(Cl)c(O)c3)n2)cc1` is 3.4-fold lower in GI50: 1 µM for the first, 0.297 µM for the second.

Going from `NC(=S)N/N=C/c1ccc(OC(=O)COc2ccccc2)cn1` to `CCOC(=O)Nc1ccc(C(=O)/C=C/c2ccccc2)cc1`, the GI50 rises from 2.31 µM to 25.2 µM (11-fold).

Going from `CC(=O)N1N=C(c2ccc(Nc3nc(Nc4ccc(F)cc4)nc(Nc4ccc(Cl)cc4)n3)cc2)CC1c1ccc(N(C)C)cc1` (stereo unspecified) to `COc1ccc(C2CC(c3cccc(OC)c3)=NN2C(=O)c2cc(OC)c(OC)c(OC)c2)cc1` (stereo unspecified), the GI50 falls from 5.61 µM to 0.484 µM (12-fold).

Compared with `Clc1ccc(N/N=C(\c2ccccc2)c2ccccn2)nc1`, `Cc1nc2ccccc2c(/C=C/c2ccccc2)c1C(=O)/C=C/c1ccc(Cl)cc1` is 50-fold higher in GI50: 0.0313 µM for the first, 1.56 µM for the second.

First: O=C1Nc2ccc(CN3CCOC3=O)cc2/C1=C/c1cc(CN2CCOCC2)c[nH]1
Second: C=C1C(=O)O[C@H]2[C@H]1CC/C(COC(=O)C(=O)c1c[nH]c3ccc(Cl)cc13)=C\CC[C@@]1(C)O[C@@H]21
The GI50 of the first is 59-fold higher: 20.7 µM for the first, 0.353 µM for the second.

Compared with `O=C(O)c1cc2cc(O)ccc2[nH]1`, `C[n+]1cc2cc3c(cc2c2ccccc21)OCO3` is lower in GI50: > 100 µM for the first, 0.503 µM for the second.

First: CC(=O)[O][Hg][CH2]C1(C)COC(C)([CH2][Hg][O]C(C)=O)CO1 (stereo unspecified)
Second: CC(=O)OC1CC2(O)C(CCC3(C)C(c4ccc(=O)oc4)CCC32O)C2(C)CCC(OC3OC(CO)C(O)C(O)C3O)C=C12 (stereo unspecified)
The GI50 of the first is 32-fold higher: 1.97 µM for the first, 0.0611 µM for the second.

First: C[C@@H]1CC[C@@H]2[C@@H]1[C@H](OC(=O)c1ccc3ccccc3c1)[C@]1(C3CCCCC3)C[C@@H](OC(=O)CO)[C@@]2(C)O1
Second: CNC(C)[C@H]1CCC2C3CCC4C[C@@H](N(C)C(=O)c5ccccc5)CC[C@]4(C)C3CC[C@@]21C (stereo partly specified)
The GI50 of the first is 13-fold higher: 10.7 µM for the first, 0.854 µM for the second.

Compared with `C=C1[C@@H](O)C[C@H]2C(C)(C)C[C@H](Cl)C[C@]2(C)[C@H]1C[C@H](O)[C@H]1CC(=O)NC1=O`, `CC1=C/C(O)CC(=O)Cc2nc(co2)C(=O)N2CCC=C2C(=O)OC(C(C)C)C(C)/C=C\C(=O)NC/C=C\1` (stereo unspecified) is 830-fold higher in GI50: 0.0138 µM for the first, 11.4 µM for the second.

Going from `CC(=O)Oc1ccccc1C(=O)NCCC[Se]C#N` to `CN(C)c1cccc(/C=C(\C#N)c2ccccc2)c1`, the GI50 falls from 3.19 µM to 0.402 µM (7.9-fold).

Compared with `c1ccc2c(-c3cnn4cc(-c5ccc(N6CCNCC6)cc5)cnc34)ccnc2c1`, `NS(=O)(=O)c1cccc(Nc2nc(SCC(=O)c3ccc([N+](=O)[O-])cc3)nc3ccccc23)c1` is 47-fold higher in GI50: 0.335 µM for the first, 15.6 µM for the second.

`N=C1N=C(N)S/C1=C\c1ccc2ncccc2c1` and `COc1ccc(Nc2ncc(-c3ccccc3)o2)cc1OC` cannot be ordered by GI50: > 25 µM for the first, > 11.6 µM for the second.

Compared with `COC(=O)c1ccc(NC(N)=NCC(C)(C)COc2ccc(C(F)(F)F)cc2)nc1`, `COc1cc2oc(-c3cccc(C(=O)Nc4ccc(C)cc4)c3)cc(=O)c2c(OC)c1OC` is 3.7-fold higher in GI50: 1.06 µM for the first, 3.88 µM for the second.

First: CNC12C3C4C1C1C2C3C41C(=O)N[C@H](C(=O)N(C)[C@H](C[C@@H](OC(C)=O)c1nc(C(=O)N[C@@H](Cc2ccccc2)C[C@H](C)C(=O)OC)cs1)C(C)C)C1CC1 (stereo partly specified)
Second: N#CSCC1CC(O)(c2ccccc2)CC(c2ccc(Cl)cc2)O1 (stereo unspecified)
The GI50 of the first is 72-fold lower: 0.0705 µM for the first, 5.07 µM for the second.

`CCCCCCCCc1ccc(CCC(N)(CO)CO)cc1` and `CC(C)c1ccc(/C=N/N=C(N)N)cc1` are within 1.5-fold of each other in GI50: 1.63 µM for the first, 1.85 µM for the second.

Compared with `Cc1ccc(NC(=O)N2CCCCC2)cc1[N+](=O)[O-]`, `C#C[C@]1(O)CC[C@H]2[C@@H]3CC=C4c5sc(-c6ccc7c(c6)OCO7)nc5CC[C@]4(C)[C@H]3CC[C@@]21C` is lower in GI50: > 100 µM for the first, 2.96 µM for the second.

Going from `OCc1ncc(-c2ccccc2)s1` to `O=C(c1ccccc1)c1ccc(O)c2ncccc12`, the TGI falls from > 100 µM to 7.75 µM.

Compared with `O=C(Nc1nc(-c2ccccc2)cs1)c1cc(O)c(O)c(O)c1`, `CCOc1ccc(NC(=O)c2cc3ccccc3cc2O)cc1` is higher in TGI: 12.7 µM for the first, > 100 µM for the second.

Compared with `Clc1ccc(-c2nc(C(Cl)Cl)nc3cc(-c4ccccc4)nn23)cc1`, `O=C1c2ccccc2C(=O)c2sc(Nc3ccc(Cl)cc3)nc21` is 2.2-fold higher in TGI: 2.15 µM for the first, 4.68 µM for the second.

First: O=C(Nc1cc(C(F)(F)F)cc(C(F)(F)F)c1)Nc1ccc(OCc2nnc(-c3ccc(Cl)cc3)o2)c(F)c1
Second: O=C(NCCNC(=O)c1ccc(F)cc1)Nc1ccc(-n2cc(-c3ccncc3)c(-c3ccc(Cl)c(O)c3)n2)cc1
The TGI of the first is 2.5-fold higher: 4.17 µM for the first, 1.65 µM for the second.

Compared with `NC(=S)N/N=C/c1ccc(OC(=O)COc2ccccc2)cn1`, `CCOC(=O)Nc1ccc(C(=O)/C=C/c2ccccc2)cc1` is higher in TGI: 7.33 µM for the first, > 100 µM for the second.

Compared with `CC(=O)N1N=C(c2ccc(Nc3nc(Nc4ccc(F)cc4)nc(Nc4ccc(Cl)cc4)n3)cc2)CC1c1ccc(N(C)C)cc1` (stereo unspecified), `COc1ccc(C2CC(c3cccc(OC)c3)=NN2C(=O)c2cc(OC)c(OC)c(OC)c2)cc1` (stereo unspecified) is higher in TGI: 33.8 µM for the first, > 100 µM for the second.

First: Clc1ccc(N/N=C(\c2ccccc2)c2ccccn2)nc1
Second: Cc1nc2ccccc2c(/C=C/c2ccccc2)c1C(=O)/C=C/c1ccc(Cl)cc1
The TGI of the first is 10-fold lower: 0.316 µM for the first, 3.15 µM for the second.

Compared with `O=C1Nc2ccc(CN3CCOC3=O)cc2/C1=C/c1cc(CN2CCOCC2)c[nH]1`, `C=C1C(=O)O[C@H]2[C@H]1CC/C(COC(=O)C(=O)c1c[nH]c3ccc(Cl)cc13)=C\CC[C@@]1(C)O[C@@H]21` is 69-fold lower in TGI: 73.3 µM for the first, 1.06 µM for the second.

First: O=C(O)c1cc2cc(O)ccc2[nH]1
Second: C[n+]1cc2cc3c(cc2c2ccccc21)OCO3
The TGI of the first is higher: > 100 µM for the first, 3.45 µM for the second.

Going from `CC(=O)[O][Hg][CH2]C1(C)COC(C)([CH2][Hg][O]C(C)=O)CO1` (stereo unspecified) to `CC(=O)OC1CC2(O)C(CCC3(C)C(c4ccc(=O)oc4)CCC32O)C2(C)CCC(OC3OC(CO)C(O)C(O)C3O)C=C12` (stereo unspecified), the TGI falls from 4.12 µM to 0.338 µM (12-fold).

Compared with `C[C@@H]1CC[C@@H]2[C@@H]1[C@H](OC(=O)c1ccc3ccccc3c1)[C@]1(C3CCCCC3)C[C@@H](OC(=O)CO)[C@@]2(C)O1`, `CNC(C)[C@H]1CCC2C3CCC4C[C@@H](N(C)C(=O)c5ccccc5)CC[C@]4(C)C3CC[C@@]21C` (stereo partly specified) is 9.6-fold lower in TGI: 26.2 µM for the first, 2.72 µM for the second.

First: C=C1[C@@H](O)C[C@H]2C(C)(C)C[C@H](Cl)C[C@]2(C)[C@H]1C[C@H](O)[C@H]1CC(=O)NC1=O
Second: CC1=C/C(O)CC(=O)Cc2nc(co2)C(=O)N2CCC=C2C(=O)OC(C(C)C)C(C)/C=C\C(=O)NC/C=C\1 (stereo unspecified)
The TGI of the first is 220-fold lower: 0.124 µM for the first, 27.5 µM for the second.

Going from `CC(=O)Oc1ccccc1C(=O)NCCC[Se]C#N` to `CN(C)c1cccc(/C=C(\C#N)c2ccccc2)c1`, the TGI rises from 15.6 µM to 36.8 µM (2.4-fold).

Compared with `c1ccc2c(-c3cnn4cc(-c5ccc(N6CCNCC6)cc5)cnc34)ccnc2c1`, `NS(=O)(=O)c1cccc(Nc2nc(SCC(=O)c3ccc([N+](=O)[O-])cc3)nc3ccccc23)c1` is 28-fold higher in TGI: 1.54 µM for the first, 43.4 µM for the second.

`N=C1N=C(N)S/C1=C\c1ccc2ncccc2c1` and `COc1ccc(Nc2ncc(-c3ccccc3)o2)cc1OC` cannot be ordered by TGI: > 25 µM for the first, > 25 µM for the second.

First: COC(=O)c1ccc(NC(N)=NCC(C)(C)COc2ccc(C(F)(F)F)cc2)nc1
Second: COc1cc2oc(-c3cccc(C(=O)Nc4ccc(C)cc4)c3)cc(=O)c2c(OC)c1OC
The TGI of the first is 9-fold lower: 2.73 µM for the first, 24.6 µM for the second.

First: CNC12C3C4C1C1C2C3C41C(=O)N[C@H](C(=O)N(C)[C@H](C[C@@H](OC(C)=O)c1nc(C(=O)N[C@@H](Cc2ccccc2)C[C@H](C)C(=O)OC)cs1)C(C)C)C1CC1 (stereo partly specified)
Second: N#CSCC1CC(O)(c2ccccc2)CC(c2ccc(Cl)cc2)O1 (stereo unspecified)
The TGI of the first is 9.4-fold lower: 1.37 µM for the first, 12.9 µM for the second.

Going from `CCCCCCCCc1ccc(CCC(N)(CO)CO)cc1` to `CC(C)c1ccc(/C=N/N=C(N)N)cc1`, the TGI rises from 3.05 µM to 5.07 µM (1.7-fold).

Compared with `Cc1ccc(NC(=O)N2CCCCC2)cc1[N+](=O)[O-]`, `C#C[C@]1(O)CC[C@H]2[C@@H]3CC=C4c5sc(-c6ccc7c(c6)OCO7)nc5CC[C@]4(C)[C@H]3CC[C@@]21C` is lower in TGI: > 100 µM for the first, 10 µM for the second.
